Source: patent US9708334B2, “Substituted 2,4,5,6-tetrahydropyrrolo[3,4-c]pyrazole and 4,5,6,7-tetrahydro-2H-pyrazolo[4,3-c]pyridine compounds as GlyT1 inhibitors” (DART NEUROSCIENCE (CAYMAN) LTD., priority 2014, dated 2017)

target: T1, GlyT1 (Homo sapiens, UniProt P48067); assay: Glycine Transporter 1 (GlyT1) uptake assay, scintillation proximity assay of [14C]-glycine uptake; type: cell-based; conditions: SPA, four parameter logistic fit, read-out: GlyT1 (pIC50) (converted)
T1 construct: expressed in transfected cells
T1 sequence (P48067 1-706): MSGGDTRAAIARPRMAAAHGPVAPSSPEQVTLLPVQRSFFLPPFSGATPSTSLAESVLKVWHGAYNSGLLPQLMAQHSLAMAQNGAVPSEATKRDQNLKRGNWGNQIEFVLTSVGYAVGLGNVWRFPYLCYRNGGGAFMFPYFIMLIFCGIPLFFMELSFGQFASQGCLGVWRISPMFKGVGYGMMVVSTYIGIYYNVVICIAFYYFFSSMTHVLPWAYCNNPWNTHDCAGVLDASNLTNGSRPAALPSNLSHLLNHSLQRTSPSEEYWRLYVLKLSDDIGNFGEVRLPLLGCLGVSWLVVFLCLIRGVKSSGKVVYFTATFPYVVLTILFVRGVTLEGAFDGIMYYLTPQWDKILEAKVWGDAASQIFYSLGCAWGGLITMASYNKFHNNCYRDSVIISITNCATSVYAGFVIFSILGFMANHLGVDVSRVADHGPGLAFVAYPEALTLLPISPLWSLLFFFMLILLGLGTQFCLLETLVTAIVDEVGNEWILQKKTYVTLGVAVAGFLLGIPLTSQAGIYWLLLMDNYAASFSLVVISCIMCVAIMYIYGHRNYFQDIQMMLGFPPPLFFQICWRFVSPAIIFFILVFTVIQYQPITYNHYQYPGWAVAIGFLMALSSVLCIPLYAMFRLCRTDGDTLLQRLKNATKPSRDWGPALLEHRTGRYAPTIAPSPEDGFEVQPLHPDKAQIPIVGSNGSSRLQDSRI
In short: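 [14C]-glycine uptake read by scintillation proximity on a plate counter. IC50 from four-parameter logistic fit of dose-response data.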

IC50, < 100 nM:
CC(C)Oc1ccc(S(C)(=O)=O)cc1C(=O)N1Cc2cn(-c3cc(F)ccc3F)nc2C1 [Example 129, 2-(2 5-Difluorophenyl)-5-[5-methanesulfonyl-2-(propan-2-yloxy)benzoyl]-2H 4H 5H 6H-pyrrolo[3,4-c]pyrazole]
Cc1ccc(F)c(-n2cc3c(n2)CN(C(=O)c2cc(S(C)(=O)=O)ccc2OC(C)C)C3)c1 [Example 130, 2-(2-Fluoro-5-methylphenyl)-5-[5-methanesulfonyl-2-(propan-2-yloxy)benzoyl]-2H 4H 5H 6H-pyrrolo[3,4-c]pyrazole]
CCc1cc(-n2cc3c(n2)CN(C(=O)c2cc(S(C)(=O)=O)ccc2N2CCC(F)(F)CC2)C3)ccn1 [Example 131, 4-{5-[2-(4 4-Difluoropiperidin-1-yl)-5-methanesulfonylbenzoyl]-2H 4H 5H 6H-pyrrolo[3,4-c]pyrazol-2-yl}-2-ethylpyridine]
CCc1cc(-n2cc3c(n2)CN(C(=O)c2cc(S(=O)(=O)CC)ccc2N2CCC(F)(F)CC2)C3)ccn1 [Example 132, 4-{5-[2-(4 4-Difluoropiperidin-1-yl)-5-(ethanesulfonyl)benzoyl]-2H 4H 5H 6H-pyrrolo[3,4-c]pyrazol-2-yl}-2-ethylpyridine]
CCc1cc(-n2cc3c(n2)CN(C(=O)c2cc(S(C)(=O)=O)ccc2O[C@@H](C)C(F)(F)F)C3)ccn1 [Example 133, 2-Ethyl-4-[5-(5-methanesulfonyl-2-{[(2S)-1 1 1-trifluoropropan-2-yl]oxy}benzoyl)-2H 4H 5H 6H-pyrrolo[3,4-c]pyrazol-2-yl]pyridine]
CCc1cc(-n2cc3c(n2)CN(C(=O)c2cc(S(=O)(=O)CC)ccc2O[C@@H](C)C(F)(F)F)C3)ccn1 [Example 134, 4-{5-[5-(Ethanesulfonyl)-2-{[(2S)-1 1 1-trifluoropropan-2-yl]oxy}benzoyl]-2H 4H 5H 6H-pyrrolo[3,4-c]pyrazol-2-yl}-2-ethylpyridine]
CCS(=O)(=O)c1ccc(N2CCC(F)(F)CC2)c(C(=O)N2Cc3cn(-c4ccc(F)cn4)nc3C2)c1 [Example 135, 2-{5-[2-(4 4-Difluoropiperidin-1-yl)-5-(ethanesulfonyl)benzoyl]-2H 4H 5H 6H-pyrrolo[3,4-c]pyrazol-2-yl}-5-fluoropyridine]
Cc1ccc(F)c(-n2cc3c(n2)CN(C(=O)c2cc(S(C)(=O)=O)ccc2OCC2CC2)C3)c1 [Example 136, 5-[2-(Cyclopropylmethoxy)-5-methanesulfonylbenzoyl]-2-(2-fluoro-5-methylphenyl)-2H 4H 5H 6H-pyrrolo[3,4-c]pyrazole]
CS(=O)(=O)c1ccc(OCC2CC2)c(C(=O)N2Cc3cn(-c4cc(F)ccc4F)nc3C2)c1 [Example 137, 5-[2-(Cyclopropylmethoxy)-5-methanesulfonylbenzoyl]-2-(2 5-difluorophenyl)-2H 4H 5H 6H-pyrrolo[3,4-c]pyrazole]
CS(=O)(=O)c1ccc(OCC2CC2)c(C(=O)N2Cc3cn(-c4cccc(C(F)(F)F)c4F)nc3C2)c1 [Example 138, 5-[2-(Cyclopropylmethoxy)-5-methanesulfonylbenzoyl]-2-[2-fluoro-3-(trifluoromethyl)phenyl]-2H 4H 5H 6H-pyrrolo[3,4-c]pyrazole]
Cc1cccc(-n2cc3c(n2)CN(C(=O)c2cc(S(C)(=O)=O)ccc2OCC2CC2)C3)c1F [Example 139, 5-[2-(Cyclopropylmethoxy)-5-methanesulfonylbenzoyl]-2-(2-fluoro-3-methylphenyl)-2H 4H 5H 6H-pyrrolo[3,4-c]pyrazole]
Cc1cccc(-n2cc3c(n2)CN(C(=O)c2cc(S(C)(=O)=O)ccc2OCC2CC2)C3)c1 [Example 140, 5-[2-(Cyclopropylmethoxy)-5-methanesulfonylbenzoyl]-2-(3-methylphenyl)-2H 4H 5H 6H-pyrrolo[3,4-c]pyrazole]
